biological target: PD-1/PD-L1 (Homo sapiens (Human), UniProt Q9NZQ7); assay: PD-1/PD-L1 Binding Assay (Alphascreen); details: numeric values
Procedure, shortened: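 PD-1/PD-L1 binding detected by anti-6×His acceptor and streptavidin donor beads after 120 min in the dark at 25 °C. Beforehand, the two proteins were incubated 15 min at 25 °C with inhibitor at 0.015–300 nM (1% DMSO). IC50 comes from a log concentration–response curve.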

Chain of PD-1/PD-L1 (Q9NZQ7 19-238): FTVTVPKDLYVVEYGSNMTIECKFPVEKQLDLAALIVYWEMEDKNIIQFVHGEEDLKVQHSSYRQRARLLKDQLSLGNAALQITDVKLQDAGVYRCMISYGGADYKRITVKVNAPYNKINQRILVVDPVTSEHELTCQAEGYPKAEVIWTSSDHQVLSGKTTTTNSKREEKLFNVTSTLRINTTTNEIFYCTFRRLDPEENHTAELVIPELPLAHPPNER

Compound | IC50 [nM]
CCNCc1cc2nc(-c3cccc(-c4cccc(-c5nc6cc(CN7CCC[C@H]7C(=O)O)c(OC(F)F)cc6o5)c4C)c3C)oc2cc1F [Example 96, ((6-(difluoromethoxy)-2-(3′-(5-((ethylamino)methyl)-6-fluorobenzo[d]oxazol-2-yl)-2,2′-dimethyl-[1,1′-biphenyl]-3-yl)benzo[d]oxazol-5-yl)methyl)-L-proline] | 0.6
Cc1c(-c2nc3cc(CN[C@@H]4CCC[C@@H]4O)ccc3o2)cccc1-c1cccc(-c2nc3cc(CN4CCC[C@H]4C(=O)O)c(OC(F)F)cc3o2)c1C [Example 99, ((6-(difluoromethoxy)-2-(3′-(5-((((1R,2S)-2-hydroxycyclopentyl)amino)methyl)benzo[d]oxazol-2-yl)-2,2′-dimethyl-[1,1′-biphenyl]-3-yl)benzo[d]oxazol-5-yl)methyl)-L-proline] | 0.82
Cc1c(-c2nc3cc(CN4CCC4(C)O)ccc3o2)cccc1-c1cccc(-c2nc3cc(CN4CCC[C@H]4C(=O)O)c(OC(F)F)cc3o2)c1C (stereo partly drawn) [Example 104, ((6-(difluoromethoxy)-2-(3′-(5-((2-hydroxy-2-methylazetidin-1-yl)methyl)benzo[d]oxazol-2-yl)-2,2′-dimethyl-[1,1′-biphenyl]-3-yl)benzo[d]oxazol-5-yl)methyl)-L-proline] | 0.19
Cc1c(-c2nc3ccc(CN4CC(C)(C)C4)cc3o2)cccc1-c1cccc(-c2nc3cc(CN4CCC[C@H]4C(=O)O)c(OC(F)F)cc3o2)c1C [Example 109, ((6-(difluoromethoxy)-2-(3′-(6-((3,3-dimethylazetidin-1-yl)methyl)benzo[d]oxazol-2-yl)-2,2′-dimethyl-[1,1′-biphenyl]-3-yl)benzo[d]oxazol-5-yl)methyl)-L-proline] | 1.6

Second part, the compound after the results:

IC50 [nM] | Compound
0.5 | Cc1c(-c2nc3cc(CN4CCC[C@H]4C(=O)O)c(OC(F)F)cc3o2)cccc1-c1cccc(-c2nc3cc(CN4CC(C)(C)C4)cnc3o2)c1C [Example 113, ((6-(difluoromethoxy)-2-(3′-(6-((3,3-dimethylazetidin-1-yl)methyl)oxazolo[5,4-b]pyridin-2-yl)-2,2′-dimethyl-[1,1′-biphenyl]-3-yl)benzo[d]oxazol-5-yl)methyl)-L-proline]
78 | Cc1c(-c2nc3cc(CN4CCC[C@H]4C(=O)O)c(OC(F)F)cc3o2)cccc1-c1cccc(-c2nc3cc(CN4CCCC4)c(F)c(F)c3o2)c1C#N [Example 118, ((2-(2′-cyano-3′-(6,7-difluoro-5-(pyrrolidin-1-ylmethyl)benzo[d]oxazol-2-yl)-2-methyl-[1,1′-biphenyl]-3-yl)-6-(difluoromethoxy)benzo[d]oxazol-5-yl)methyl)-L-proline]
1.9 | Cc1c(-c2nc3cc(CNCCO)c(OCc4ccc(C#N)nc4)cc3o2)cccc1-c1cccc(-c2nc3cc(CN4CCC[C@H]4C(=O)O)c(OC(F)F)cc3o2)c1C [Example 119, ((2-(3′-(6-((6-cyanopyridin-3-yl)methoxy)-5-(((2-hydroxyethyl)amino)methyl)benzo[d]oxazol-2-yl)-2,2′-dimethyl-[1,1′-biphenyl]-3-yl)-6-(difluoromethoxy)benzo[d]oxazol-5-yl)methyl)-L-proline]
1.1 | Cc1c(-c2nc3cc(CNCCO)c(OCc4cncc(C#N)c4)cc3o2)cccc1-c1cccc(-c2nc3cc(CN4CCC[C@H]4C(=O)O)c(OC(F)F)cc3o2)c1C [Example 120, ((2-(3′-(6-((5-cyanopyridin-3-yl)methoxy)-5-(((2-hydroxyethyl)amino)methyl)benzo[d]oxazol-2-yl)-2,2′-dimethyl-[1,1′-biphenyl]-3-yl)-6-(difluoromethoxy)benzo[d]oxazol-5-yl)methyl)-L-proline]
0.6 | Cc1c(-c2nc3cc(CNCCO)c(OCc4cncc(S(C)(=O)=O)c4)cc3o2)cccc1-c1cccc(-c2nc3cc(CN4CCC[C@H]4C(=O)O)c(OC(F)F)cc3o2)c1C [Example 121, ((6-(difluoromethoxy)-2-(3′-(5-(((2-hydroxyethyl)amino)methyl)-6-((5-(methylsulfonyl)pyridin-3-yl)methoxy)benzo[d]oxazol-2-yl)-2,2′-dimethyl-[1,1′-biphenyl]-3-yl)benzo[d]oxazol-5-yl)methyl)-L-proline]

same assay, conditions: range symbols

Compound | IC50 [nM]
CCNCc1cc2nc(-c3cccc(-c4cccc(-c5nc6cc(CN7CCC[C@H]7C(=O)O)c(OC(F)F)cc6o5)c4C)c3C)oc2cc1Cl [Example 97, ((2-(3′-(6-chloro-5-((ethylamino)methyl)benzo[d]oxazol-2-yl)-2,2′-dimethyl-[1,1′-biphenyl]-3-yl)-6-(difluoromethoxy)benzo[d]oxazol-5-yl)methyl)-L-proline] | 0.1 to 5
Cc1c(-c2nc3cc(CN4CCC4CO)ccc3o2)cccc1-c1cccc(-c2nc3cc(CN4CCC[C@H]4C(=O)O)c(OC(F)F)cc3o2)c1C (stereo partly drawn) [Example 105, ((6-(difluoromethoxy)-2-(3′-(5-((2-(hydroxymethyl)azetidin-1-yl)methyl)benzo[d]oxazol-2-yl)-2,2′-dimethyl-[1,1′-biphenyl]-3-yl)benzo[d]oxazol-5-yl)methyl)-L-proline] | 0.1 to 5
Cc1c(-c2nc3cc(CN4CCC45COC5)ccc3o2)cccc1-c1cccc(-c2nc3cc(CN4CCC[C@H]4C(=O)O)c(OC(F)F)cc3o2)c1C [Example 106, ((2-(3′-(5-((6-oxa-1-azaspiro[3.3]heptan-1-yl)methyl)benzo[d]oxazol-2-yl)-2,2′-dimethyl-[1,1′-biphenyl]-3-yl)-6-(difluoromethoxy)benzo[d]oxazol-5-yl)methyl)-L-proline] | 0.1 to 5
Cc1c(-c2nc3cc(CN4CCC45CCC5)ccc3o2)cccc1-c1cccc(-c2nc3cc(CN4CCC[C@H]4C(=O)O)c(OC(F)F)cc3o2)c1C [Example 107, ((2-(3′-(5-((1-azaspiro[3.3]heptan-1-yl)methyl)benzo[d]oxazol-2-yl)-2,2′-dimethyl-[1,1′-biphenyl]-3-yl)-6-(difluoromethoxy)benzo[d]oxazol-5-yl)methyl)-L-proline] | 0.1 to 5
Cc1c(-c2nc3cc(CN4CCC[C@H]4C(=O)O)c(OC(F)F)cc3o2)cccc1-c1cccc(-c2nc3ccc(CN4CC(C)(C)C4)cc3o2)c1Cl [Example 110, ((2-(2′-chloro-3′-(6-((3,3-dimethylazetidin-1-yl)methyl)benzo[d]oxazol-2-yl)-2-methyl-[1,1′-biphenyl]-3-yl)-6-(difluoromethoxy)benzo[d]oxazol-5-yl)methyl)-L-proline] | 0.1 to 5
Cc1c(-c2nc3cc(CN4CCC[C@@H]4C(=O)O)c(OC(F)F)cc3o2)cccc1-c1cccc(-c2nc3ccc(CN4CC(C)(C)C4)cc3o2)c1Cl [Example 111, ((2-(2′-chloro-3′-(6-((3,3-dimethylazetidin-1-yl)methyl)benzo[d]oxazol-2-yl)-2-methyl-[1,1′-biphenyl]-3-yl)-6-(difluoromethoxy)benzo[d]oxazol-5-yl)methyl)-D-proline] | 0.1 to 5
Cc1c(-c2nc3cc(CN4CCC[C@H]4C(=O)O)c(OC(F)F)cc3o2)cccc1-c1cccc(-c2nc3cc(CN4CCCC4)cnc3o2)c1C [Example 112, ((6-(difluoromethoxy)-2-(2,2′-dimethyl-3′-(6-(pyrrolidin-1-ylmethyl)oxazolo[5,4-b]pyridin-2-yl)-[1,1′-biphenyl]-3-yl)benzo[d]oxazol-5-yl)methyl)-L-proline] | 0.1 to 5

Now from value to compound:

IC50 [nM] | Compound
0.1 to 5 | Cc1c(-c2nc3cc(CN4CCC[C@H]4C(=O)O)c(OC(F)F)cc3o2)cccc1-c1cccc(-c2nc3cc(CNCC4CCC(=O)N4)cnc3o2)c1C (stereo partly drawn) [Example 115, ((6-(difluoromethoxy)-2-(2,2′-dimethyl-3′-(6-((((5-oxopyrrolidin-2-yl)methyl)amino)methyl)oxazolo[5,4-b]pyridin-2-yl)-[1,1′-biphenyl]-3-yl)benzo[d]oxazol-5-yl)methyl)-L-proline]
0.1 to 5 | Cc1c(-c2nc3cc(CN4CCC[C@H]4C(=O)O)c(OC(F)F)cc3o2)cccc1-c1cccc(-c2nc3cc(CN4CC(N(C)C)C4)cnc3o2)c1C [Example 116, ((6-(difluoromethoxy)-2-(3′-(6-((3-(dimethylamino)azetidin-1-yl)methyl)oxazolo [5,4-b]pyridin-2-yl)-2,2′-dimethyl-[1,1′-biphenyl]-3-yl)benzo[d]oxazol-5-yl)methyl)-L-proline]
0.1 to 5 | CCNCc1cc2nc(-c3cccc(-c4cccc(-c5nc6cc(CN7CCC[C@H]7C(=O)O)c(OC(F)F)cc6o5)c4C)c3C)oc2cc1OCc1cncc(S(C)(=O)=O)c1 [Example 122, ((6-(difluoromethoxy)-2-(3′-(5-((ethylamino)methyl)-6-((5-(methylsulfonyl)pyridin-3-yl)methoxy)benzo[d]oxazol-2-yl)-2,2′-dimethyl-[1,1′-biphenyl]-3-yl)benzo[d]oxazol-5-yl)methyl)-L-proline]
0.1 to 5 | Cc1c(-c2nc3cc(CN(C)C)c(OCc4cncc(S(C)(=O)=O)c4)cc3o2)cccc1-c1cccc(-c2nc3cc(CN4CCC[C@H]4C(=O)O)c(OC(F)F)cc3o2)c1C [Example 123, ((6-(difluoromethoxy)-2-(3′-(5-((dimethylamino)methyl)-6-((5-(methylsulfonyl)pyridin-3-yl)methoxy)benzo[d]oxazol-2-yl)-2,2′-dimethyl-[1,1′-biphenyl]-3-yl)benzo[d]oxazol-5-yl)methyl)-L-proline]
0.1 to 5 | CNCc1cc2nc(-c3cccc(-c4cccc(-c5nc6cc(CN7CCC[C@H]7C(=O)O)c(OC(F)F)cc6o5)c4C)c3C)oc2cc1OCc1cccc(S(C)(=O)=O)c1 [Example 124, ((6-(difluoromethoxy)-2-(2,2′-dimethyl-3′-(5-((methylamino)methyl)-6-((3-(methylsulfonyl)benzyl)oxy)benzo[d]oxazol-2-yl)-[1,1′-biphenyl]-3-yl)benzo[d]oxazol-5-yl)methyl)-L-proline]
0.1 to 5 | CNCc1cc2nc(-c3cccc(-c4cccc(-c5nc6cc(CN7CCC[C@H]7C(=O)O)c(OC(F)F)cc6o5)c4C)c3C)oc2cc1OCc1ccc(S(C)(=O)=O)cc1 [Example 125, ((6-(difluoromethoxy)-2-(2,2′-dimethyl-3′-(5-((methylamino)methyl)-6-((4-(methylsulfonyl)benzyl)oxy)benzo[d]oxazol-2-yl)-[1,1′-biphenyl]-3-yl)benzo[d]oxazol-5-yl)methyl)-L-proline]

From US12187713B2, “Immunomodulators, compositions and methods thereof” (Betta Pharmaceuticals Co., Ltd, priority 2019, dated 2025)
